From US20210261636A1, “NEOANTIGENS EXPRESSED IN MULTIPLE MYELOMA AND THEIR USES” (Janssen Biotech, Inc., priority 2020, published 2021)

How the values were obtained:
CD8+ T cells = test: Exogenous autologous healthy donor restimulation assay, TNFα and IFNγ production by CD8+ T cells; format: cell-based, human; parameters: Frequency (TNFα+ IFNγ+ CD8 T cells): unit not given here; settings: for Fold change (CD8+) vs. DMSO: maximum CD8+ T-cell response (TNFα and IFNγ); for Fold change (CD8+) vs. DMSO / Frequency (TNFα+ IFNγ+ CD8 T cells): donor independent, peptide pool 10 μg/mL, healthy donors; for Frequency (TNFα+ IFNγ+ CD8 T cells): maximum CD8+ T-cell response; for Immunogenic (yes/no): positive if CD8+ and/or CD4+ double positive TNFα/IFNγ frequency >=3-fold over DMSO and at least 0.01%
Summary of the method: (§1)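 CD1c+ DCs from healthy donor PBMCs pulsed 2 h with 15-mer overlapping neoantigen peptide pools (10 μg/mL), irradiated 50 Gy, then co-cultured 12 days with autologous CD3+ T cells plus IL-15/IL-2. Restimulated day 11 with same pools, overnight with protein inhibitor; intracellular TNFα/IFNγ by flow. Positive: ≥3-fold over DMSO and ≥0.01% double-positive.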

CD4+ T cells = test: Exogenous autologous healthy donor restimulation assay, TNFα and IFNγ production by CD4+ T cells; format: cell-based, human; parameters: Frequency (TNFα+ IFNγ+ CD4 T cells): unit not given here; settings: donor independent, peptide pool 10 μg/mL, healthy donors; for Fold change (CD4+) vs. DMSO: maximum CD4+ T-cell response (TNFα and IFNγ); for Frequency (TNFα+ IFNγ+ CD4 T cells): maximum CD4+ T-cell response
Summary of the method: as §1

Sequence	Fold change (CD8+) vs. DMSO (CD8+ T cells)	Frequency (TNFα+ IFNγ+ CD8 T cells) (CD8+ T cells)	Immunogenic (yes/no) (CD8+ T cells)	Fold change (CD4+) vs. DMSO (CD4+ T cells)	Frequency (TNFα+ IFNγ+ CD4 T cells) (CD4+ T cells)
LDPPHDEKALACPQWTLLWIFWTAKAL [AS95, alternative splicing, WDR64]	1.58	0.13	Yes	19.58	0.014
RSISLHKSDPSLLSPN [AS25, alternative splicing, TBCEL]	43.6	0.028	Yes	57.01	0.061
SQKQPALKCLLRNNRP [AS84, alternative splicing, ANKRD36]	162.14	4.54	Yes	10.66	0.019
FSMRPAFGETALGCKKW [AS19, alternative splicing, GABRR2]	140	0.031	Yes	23.16	0.12
PPLITNVTEKPWKHTRIEMPLARLTRP [FUS51, gene fusion POU2AF1-> COLCA1]	200	0.06	Yes	11.93	0.061
MDLTAIYETMQIFVKT [FUS30, gene fusion ZFP36-> UBC]	3.5	0.13	Yes	51.81	0.1
NRVTALTQN [FUS35, gene fusion TMED3-> KIAA1024]	3.24	0.049	Yes	2.28	0.019
AKFWSDISINRAPSFG [AS94, alternative splicing, TTLL7]	97.14	2.72	Yes	62.53	0.63
VHLDFSSAEMGFPHAAQANVELLGSSDLLT [AS116, alternative splicing, FCRL5]	192.71	1.42	Yes	6.32	0.076
RPGVFTDIL [FUS53, gene fusion PTPRG-> C3orf14]	76.5	0.78	Yes	6.29	0.041
LEDKELGRISVCPWTEGLEKMEKTLLCSSSG [AS88, alternative splicing, CADPS2]	4.55	0.025	Yes	79.18	0.12
CRERGLQEAEGDVAAL [FUS40, gene fusion KLF2-> TPM4]	18.3	0.43	Yes	1.26	0.024
